Source: patent US8288548B2, “Oxazolo[5-4-b]pyridin-5-yl compounds” (Eli Lilly and Company, priority 2010, dated 2012)
pIC50: −log10 of the molar value.

Key:
human p38α MAP kinase = human p38α MAP kinase (Homo sapiens, UniProt Q16539); test: Inhibition of p38α MAP kinase enzyme activity (33P-ATP filter assay); type: biochemical; details: 100 μM ATP, 11.8 nM p38α MAP kinase
Procedure: The kinase reaction buffer is prepared as a stock solution containing 1440 μL of 1 M 4-(2-hydroxyethyl)-1-piperazineethanesulfonic acid (HEPES) pH 7.5, 240 μL of 1 M MgCl2, 72 μL of 1 M dithiothreitol (DTT), 25 μL of 10% TRITON® X-100, 43223 μL of H2O. The substrate mix is prepared by combining the following: 2775 μL kinase reaction buffer, 75.0 μL adenosine triphosphate (ATP) at 10 mM, 270 μL EGFR peptide (Upstate Biotechnology/Millipore) at 4 mM (9.17 mg/mL) and 12.5 μL ^33P-ATP. The p38 MAP kinase enzyme stock solution is prepared by diluting 0.1 mg/mL solution of purified human p38α MAP kinase in 3000 μL of reaction buffer. Stock solutions of test compounds are generated by dissolving the compounds in 100% dimethyl sulfoxide (DMSO) at 10 mM. 100 μM stock dilution plates are generated by diluting 2 μL of 10 mM stock in 198 μL of 20% DMSO. 1:3 dilutions in 20% DMSO are generated from the 100 μM stock using a Tecan liquid handler.
For the kinase assay, 5 μL of diluted compound is transferred to the reaction plate, followed by 10 μL of enzyme stock solution (added using a MULTIDROP® liquid dispenser). […] Following the washing steps, 80 μL of MICROSCINT™20 is added and the radioactivity counted in a Trilux MICROBETA®. IC50 values are calculated using Activity Base software (IDBS).

p38 MAP kinase = test: In vivo inhibition of p38 MAP kinase in U87MG tumor-bearing mice (p-MAPKAPK2 in tumor lysates); parameters: species or system athymic nude mice; details: oral, 2 hours after dosing
Procedure: A murine xenograft model utilizing the human tumor cell line, U87MG, is used for assessment of inhibition of p38 MAP kinase in tumors
Female athymic nude mice (24-26 g, Harlan) are injected subcutaneously in the rear flank with 5×10^6 U87MG cells per animal Cells are injected in a 0.2 mL volume with a 1:1 mixture of cell culture media and BD […]™ matrix. 7 days after implant tumors are measured using a caliper and the data recorded. Tumors are measured twice weekly thereafter and the tumor size is recorded. When tumors reach an average volume of approximately 250 mm^3 (usually 10-15 days after implant), animals are randomized into groups of 8-10 for treatment. Animals are then dosed orally with 0.2 mL vehicle (1% HEC, 0.25% TWEEN® 80, 0.05% antifoam) alone or vehicle containing test compound. 2 Hours after dosing, animals are euthanized. […]
p-MAPKAPK2 levels in the tumor lysates are determined using a Mesoscale Discovery (MSD) capture ELISA kit (2 Phospho-MAPKAPK-2 (Thr334)). The concentration of protein in the lysates is determined using a BioRad DC protein assay kit (BioRad). […] Following incubation with the detection antibody, the MSD plate is washed followed by addition of MSD read buffer. After passage of current over the electrode, electro-chemiluminescence results in the generation of light that is quantified using the MSD Sector 6000 instrument. […]

p38β MAP kinase = target: T1, p38β MAP kinase (Homo sapiens, UniProt Q15759); test: Inhibition of p38β MAP kinase enzyme activity; type: biochemical; details: 20 μM ATP
T1 construct: purchased Upstate Biotechnology/Millipore
Procedure: The kinase reaction buffer is prepared essentially as described above. The substrate mix is prepared by combining the following: 2840 μL Kinase Reaction Buffer, 15.0 μL ATP at 10 mM, 125 μL EGFR peptide at 4 mM (9.174 mg/ml), 18.75 μL ^33P-ATP. The p38β MAP kinase enzyme stock solution is prepared by diluting 2.25 μL of a 0.57 mg/mL solution of commercial p38β MAP kinase (Upstate Biotechnology/Millipore) in 2000 μL of reaction buffer. Stock solutions of test compounds are generated essentially as described above.
The kinase assay is performed essentially as described for p38α MAP kinase. Final reaction conditions are as follows: 25 mM HEPES pH 7.5, 4.25 mM MgCl2, 1.30 mM DTT, 0.004% TRITON® X-100, 20 μM ATP, 65 μM EGFR peptide, 0.25 ng/μL p38β MAP kinase, 4% DMSO. […] For example, Example 1 has an IC50=0.007 μM.

T1 sequence (Q15759 whole entry): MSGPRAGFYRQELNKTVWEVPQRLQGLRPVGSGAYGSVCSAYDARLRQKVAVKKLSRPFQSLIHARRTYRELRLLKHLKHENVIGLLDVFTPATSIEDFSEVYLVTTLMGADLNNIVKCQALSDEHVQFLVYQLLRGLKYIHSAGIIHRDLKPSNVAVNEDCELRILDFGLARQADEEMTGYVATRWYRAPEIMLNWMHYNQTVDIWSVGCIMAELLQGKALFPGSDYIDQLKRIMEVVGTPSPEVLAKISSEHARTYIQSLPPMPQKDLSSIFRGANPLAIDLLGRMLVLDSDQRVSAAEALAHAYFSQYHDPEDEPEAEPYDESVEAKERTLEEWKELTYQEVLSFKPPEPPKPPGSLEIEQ
Chain of human p38α MAP kinase (Q16539 whole entry): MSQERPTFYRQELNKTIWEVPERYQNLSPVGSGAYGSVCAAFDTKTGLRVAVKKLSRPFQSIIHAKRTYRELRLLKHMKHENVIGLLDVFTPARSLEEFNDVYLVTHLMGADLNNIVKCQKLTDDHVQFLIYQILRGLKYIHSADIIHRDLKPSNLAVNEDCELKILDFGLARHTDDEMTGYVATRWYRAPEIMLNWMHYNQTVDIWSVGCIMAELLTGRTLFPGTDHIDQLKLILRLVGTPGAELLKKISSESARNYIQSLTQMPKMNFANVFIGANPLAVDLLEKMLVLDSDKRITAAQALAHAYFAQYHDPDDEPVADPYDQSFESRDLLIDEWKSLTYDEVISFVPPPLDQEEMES

pIC50 (human p38α MAP kinase): 8.52 | pIC50 (p38β MAP kinase): 8.15
Structure (SMILES): COCC[C@H](C)Nc1nc2ccc(-c3nc(C(C)(C)CO)[nH]c3-c3ccc(F)cc3F)nc2o1 [Example 1, 2-[5-(2,4-Difluorophenyl)-4-[2-[[(1S)-3-methoxy-1-methyl-propyl]amino]oxazolo[5,4-b]pyridin-5-yl]-1H-imidazol-2-yl]-2-methyl-propan-1-ol]
TED70 for p38 MAP kinase target inhibition in tumors (p38 MAP kinase): 2.9 mg/kg | TEC70 (p38 MAP kinase; U87MG tumors): 31.3 ng/mL
